Source: patent US20230346901A1, “METHODS AND VACCINE COMPOSITIONS TO TREAT CANCERS” (priority 2019, published 2023)
Ends that are not written are not given here.

How the values were obtained:
[1] = system: spleen cells from healthy mice; format: cell-based, mouse; conditions: up to the highest concentration tested, 20 h
Procedure: FIG. 1: RT53 treatment increases APL mice survival. (A) The indicated cells were left untreated or exposed to increasing concentrations of RT53 for 20 h. Cell death induced by peptide treatment was measured by lactate dehydrogenase (LDH) release. Data are means±s.e.m. (n=3). (B) APL spleen cells were exposed to 5 μM of RT53 in the presence or absence of 50 μM zVAD-fmk or 50 μM Necrostatin-1 (Nec-1) for 3 h. Necrotic cell death was monitored by lactate dehydrogenase (LDH) release from cells into the culture medium. The obtained values were normalized to those of the maximum LDH released (completely lysed) control. Data are means±s.e.m. (n=3). (C) 104 APL blasts were inoculated intravenously (i.v.) into FVB/N mice at day zero. […] Survival curves were analyzed with the Mantel-Cox test. […] Survival curves were analyzed with the Mantel-Cox test.
Release of lactate dehydrogenase (LDH) and ATP in the culture medium were assessed with the CytoTox 96 Non-Radioactive Cytotoxicity Assay and Enliten ATP Assay, respectively (Promega, Madison, WI, USA). HMGB1 release in the culture medium was assessed with the HMGB1 ELISA kit (IBL International, Hamburg, Germany). […]

[2] = Organ toxicity in peptide-treated APL mice; format: in vivo, FVB/N mice; conditions: either treatment schedule (data not shown)
Procedure: APL blasts (provided by Drs. M. Bishop and S. Kogan, UCSF, USA) origin from the spleen of mice bearing the human PML-RARA cDNA construct driven by a myeloid linage specific promoter (hMRP8) in the FVB/N inbred strain of mice. For amplification, cells (1×105 or 1×106) were suspended in PBS and transplanted by intravenous (i.v) tail injection (200 uL) into female syngeneic recipient mice (5-6 weeks old). Establishment of leukemia was assessed by a decrease in blood platelet counts approx. 3 weeks after graft. Spleen cells from a primary recipient were collected, washed, re-suspended in PBS and injected (10^4 cells/mouse; 200 uL) into the tail veins of male FVB/N mice (7-8 weeks old) for experiments. For direct treatment experiments, mice were treated daily or every other day (i.p) with normal saline, RT53 or RT39 at 2.4 mg/kg in normal saline starting from day 10 or day 20 for a total of 7 injections.
To explore the in vivo therapeutic potential of RT53 as a treatment of acute leukemia, we used a well-characterized preclinical APL model bearing the human PML-RARA oncogene which mimics human APL, both in its characteristics and its response to conventional therapeutic drugs such as ATRA and arsenic trioxide^9, 10. In this model, 100% of the syngeneic mice (FVB/N) transplanted with 104 primary recipients' spleen blasts developed an APL and succumbed within 30 days (FIG. 1C).

[3] = system: normal spleen cells; experiment: Electron microscopy ultrastructural analysis, normal spleen cells; format: cell-based, mouse; conditions: normal spleen cells exposed to RT53 (data not shown)
Procedure: Samples were fixed in 3% glutaraldehyde in phosphate buffer, pH 7.4 for 1 hour, washed, post-fixed with 1% osmium tetroxide in 0.1 M phosphate buffer and then gradually dehydrated in 70, 90 and 100% ethanol. After 10 min in a 1:2 mixture of epoxy propane and epoxy resin and 10 min in epon, samples were embedded in epoxy resin and polymerized at 60° C. for 24 h. After polymerisation, ultrathin sections of 90 nm were cut with an ultra-microtome (Reichert ultracut S), stained with uranyl acetate and Reynold's lead and observed with a transmission electron microscope (JEOL 1011). Acquisition was performed with a Gatan Orius 1000 CCD camera.
To test the antileukemic properties of RT53, we first exposed human all-trans retinoic acid (ATRA)-sensitive (NB4) and ATRA-resistant (UF-1) acute promyelocytic leukemia (APL) cells as well as mouse APL spleen blast cells derived from hMRP8-PML-RARA transgenic mice9 to increasing concentrations of RT53.

[4] = system: U2OS cells; experiment: Immunogenic cell death markers (HMGB1, ATP release) in U2OS cells; format: cell-based
Procedure: ((A) U2OS cells were left untreated or exposed to increasing concentrations of RT39 for 3 h. Extracellular HMGB1 was then measured in the culture supernatant by an ELISA assay. Data are means±s.e.m. (n=3). (B) U2OS cells were left untreated or exposed to increasing concentrations of RT39 for 3 h. Extracellular ATP was then measured in the culture supernatant using an ATP-bioluminescence assay. Data are means±s.e.m. (n=3).
Release of lactate dehydrogenase (LDH) and ATP in the culture medium were assessed with the CytoTox 96 Non-Radioactive Cytotoxicity Assay and Enliten ATP Assay, respectively (Promega, Madison, WI, USA). HMGB1 release in the culture medium was assessed with the HMGB1 ELISA kit (IBL International, Hamburg, Germany).

[5] = U2OS cells, increasing concentrations of RT39, 3 h

Sequence | cell death by LDH release in normal cells [1] | organ toxicity (macroscopic or microscopic) [2] | cellular integrity by ultrastructural analysis [3] | extracellular ATP release (ATP-bioluminescence) [4, 5] | extracellular HMGB1 release (ELISA) [4, 5] | calreticulin exposure ([4]; stated in figure title only, cells not given)
RQIKIWFQNRRMKWKKAKLNAEKLKDFKIRLQYFARGLQVYIRQLRLALQGKT [RT53] | no cell death was detected | No organ toxicity | No changes in cellular integrity or ruptured cells could be detected | – | – | –
RQIKIWFQNRRMKWKKLQYFARGLQVYIRQLRLALQGKT (Synthetic Fusion protein RT39) [fusion of penetratin with AAC-11 leucine-zipper derived peptide (377-399)] | – | – | – | triggers calreticulin exposure as well as the release of HMGB1 and ATP | triggers calreticulin exposure as well as the release of HMGB1 and ATP | triggers calreticulin exposure
